Measurements from patent US4661602A, “Substituted alkyl imidazole derivatives” (G. D. Searle & Co., priority 1985, dated 1987).
In brackets after ≈: the same amount, converted by molar mass. Structures can show the parent of a compound that is named as a salt. Where two headings read alike, the source gives them in different places.

Legend:
B. Fragilis NCTC 10581 = test: Anti-anaerobic activity, strain A (microtitre plate MIC/MBC); type: cell-based, Bacteroides fragilis
B. Fragilis NCTC 9343 = test: Anti-anaerobic activity, strain B (microtitre plate MIC/MBC); type: cell-based, Bacteroides fragilis; conditions: for MIC: 48 hours, 37° C., anaerobic chamber, lowest concentration with no detectable growth
B. Fragilis NCTC 9344 = test: Anti-anaerobic activity, strain C (microtitre plate MIC/MBC); type: cell-based; conditions: Bacteroides fragilis, NCTC9344, 48 h
B. Fragilis ATCC 11295 = test: Anti-anaerobic activity, strain D (microtitre plate MIC/MBC); type: cell-based; conditions: Bacteroides fragilis, ATCC11295, 48 h
B. Fragilis WS-1 = test: Anti-anaerobic activity, strain E (microtitre plate MIC/MBC); type: cell-based; conditions: Bacteroides fragilis, 48 h
[1] = tested on: Clostridium perfringens NCTC 523; test: microbe, parasite or virus in culture; type: cell-based; conditions: NCTC523
[2] = tested on: Cl. perfringens NCTC 8237; test: microbe, parasite or virus in culture; type: cell-based; conditions: Clostridium perfringens, NCTC8237
Campl. fetus ATCC 29428 = test: Anti-anaerobic activity, additional strains; type: cell-based; conditions: Campylobacter fetus, ATCC29428
[3] = tested on: Fuso. necrophorum ATCC 11295; test: Anti-anaerobic activity, additional strains; type: cell-based; conditions: Fusobacterium necrophorum, ATCC11295
[4] = tested on: Peptococc. magnus ATCC 29328; test: Anti-anaerobic activity, additional strains; type: cell-based
P. prevotti ATCC 9321 = test: Anti-anaerobic activity, additional strains; type: cell-based
[5] = tested on: Peptostrepto anaerobicus ATCC 27337; test: Anti-anaerobic activity, additional strains; type: cell-based
[6] = tested on: Propionibacterium acnes NCTC 737; test: Anti-anaerobic activity, additional strains; type: cell-based; conditions: Cutibacterium acnes, NCTC737
P. acnes NCTC 7337 = test: Anti-anaerobic activity, additional strains; type: cell-based, Propionibacterium acnes; conditions: Cutibacterium acnes, NCTC7337
Trichomonas vaginalis = test: MIC against Trichomonas vaginalis (Diamonds Medium); type: cell-based
[7] = Peptostrepto anaerobicus ATCC 27337
[8] = Bacteroides fragilis, NCTC10581, 48 h

## Clc1ccc(N2CCN=C2C(Cn2ccnc2)c2ccccc2)c(Cl)c1 (centres unmarked) [Example 3, 1-(2,4-Dichlorophenyl)-4,5-dihydro-2-[2-(imidazol-1-yl)-1-phenylethyl]imidazole hydrochloride]
B. Fragilis NCTC 10581; Bacteroides fragilis, NCTC10581, 48 h, strain A, less than 5 colonies (99.9% reduction in viable count) after 48 hours, read-out: MBC
  MBC: 0.8 µg/mL
B. Fragilis NCTC 9343; Bacteroides fragilis, NCTC9343, 48 h, strain B, read-out: MIC
  MIC: 1.5 µg/mL
B. Fragilis NCTC 9343; Bacteroides fragilis, NCTC9343, 48 h, strain B, less than 5 colonies (99.9% reduction in viable count) after 48 hours, read-out: MBC
  MBC: 1.5 µg/mL
B. Fragilis NCTC 9344; strain C, less than 5 colonies (99.9% reduction in viable count) after 48 hours, read-out: MBC
  MBC: 0.8 µg/mL
B. Fragilis ATCC 11295; strain D, less than 5 colonies (99.9% reduction in viable count) after 48 hours, read-out: MBC
  MBC: 0.8 µg/mL
B. Fragilis WS-1; strain E, 48 hours, 37° C., anaerobic chamber, lowest concentration with no detectable growth, read-out: MIC
  MIC: 1.5 µg/mL
[1]
  MBC: 3.1 µg/mL
  MIC: 0.8 µg/mL
[2]
  MBC: 3.1 µg/mL
  MIC: 3.1 µg/mL
Campl. fetus ATCC 29428; Campl. fetus ATCC 29428, read-out: MBC
  MBC: 6.2 µg/mL
Campl. fetus ATCC 29428; Campl. fetus ATCC 29428, read-out: MIC
  MIC: 1.5 µg/mL
[3]
  MIC: 3.1 µg/mL
[3]; Fuso. necrophorum ATCC 11295, read-out: MBC
  MBC: 6.2 µg/mL
[4]; Peptococc. magnus ATCC 29328
  MIC: 1.5 µg/mL
[4]; Peptococc. magnus ATCC 29328, read-out: MBC
  MBC: 6.2 µg/mL
P. prevotti ATCC 9321
  MIC: 3.1 µg/mL
P. prevotti ATCC 9321; P. prevotti ATCC 9321
  MBC: 12.5 µg/mL
[5]
  MBC: 3.1 µg/mL
[5]; [7]
  MIC: 1.5 µg/mL
[6]
  MBC: 3.1 µg/mL
[6]; Propionibacterium acnes NCTC 737, read-out: MIC
  MIC: 0.8 µg/mL
P. acnes NCTC 7337; P. acnes NCTC 7337, read-out: MBC
  MBC: 0.8 µg/mL
P. acnes NCTC 7337; P. acnes NCTC 7337, read-out: MIC
  MIC: 0.8 µg/mL
Trichomonas vaginalis
  MIC: 3.1 µg/mL

## Cc1ncc([N+](=O)[O-])n1CCO [Metronidazole, reference compound]
B. Fragilis NCTC 10581; [8]
  MBC: 1.2 µg/mL (≈ 7.01 µM)
  MIC: 0.8 µg/mL (≈ 4.67 µM)
B. Fragilis NCTC 10581; Bacteroides fragilis, NCTC10581, 48 h, strain A, 48 hours, 37° C., anaerobic chamber, lowest concentration with no detectable growth, read-out: MIC
  MIC: 0.6 µg/mL (≈ 3.51 µM)
B. Fragilis NCTC 10581; strain A, 48 hours, 37° C., anaerobic chamber, lowest concentration with no detectable growth
  MIC: 1.2 µg/mL (≈ 7.01 µM)
B. Fragilis NCTC 9343; Bacteroides fragilis, NCTC9343, 48 h
  MBC: 1.2 µg/mL (≈ 7.01 µM)
B. Fragilis NCTC 9343; Bacteroides fragilis, NCTC9343, 48 h, strain B
  MIC: 1.5 µg/mL (≈ 8.76 µM)
B. Fragilis NCTC 9343; strain B
  MIC: 0.8 µg/mL (≈ 4.67 µM)
B. Fragilis NCTC 9344
  MBC: 1.2 µg/mL (≈ 7.01 µM)
  MIC: 0.8 µg/mL (≈ 4.67 µM)
B. Fragilis ATCC 11295
  MBC: 10 µg/mL (≈ 58.4 µM)
B. Fragilis WS-1
  MBC: 1.2 µg/mL (≈ 7.01 µM)
  MIC: 0.8 µg/mL (≈ 4.67 µM)
[1]
  MBC: 1.2 µg/mL (≈ 7.01 µM)
  MIC: 0.08 µg/mL (≈ 0.467 µM)
[2]
  MBC: 10 µg/mL (≈ 58.4 µM)
  MIC: 10 µg/mL (≈ 58.4 µM)
Campl. fetus ATCC 29428
  MBC: 10 µg/mL (≈ 58.4 µM)
  MIC: 10 µg/mL (≈ 58.4 µM)
[3]
  MBC: 10 µg/mL (≈ 58.4 µM)
  MIC: 10 µg/mL (≈ 58.4 µM)
[4]
  MBC: 10 µg/mL (≈ 58.4 µM)
[4]; Peptococc. magnus ATCC 29328
  MIC: 0.6 µg/mL (≈ 3.51 µM)
P. prevotti ATCC 9321; P. prevotti ATCC 9321
  MBC: 2.5 µg/mL (≈ 14.6 µM)
P. prevotti ATCC 9321; P. prevotti ATCC 9321, read-out: MIC
  MIC: 1.2 µg/mL (≈ 7.01 µM)
[5]; [7]
  MIC: 0.3 µg/mL (≈ 1.75 µM)
[5]; Peptostrepto anaerobicus ATCC 27337, read-out: MBC
  MBC: 0.3 µg/mL (≈ 1.75 µM)
[6]
  MBC: 10 µg/mL (≈ 58.4 µM)
  MIC: 10 µg/mL (≈ 58.4 µM)
P. acnes NCTC 7337
  MBC: 10 µg/mL (≈ 58.4 µM)
  MIC: 10 µg/mL (≈ 58.4 µM)
Trichomonas vaginalis; Diamonds Medium, lowest concentration at which no mobile organisms are viable microscopically, read-out: MIC
  MIC: 0.6 µg/mL (≈ 3.51 µM)
